# Test results as given in PubChem BioAssay AID1845217 (Molecular Pharmacology Branch, DTP, NCI, 2023).
# Tested on: VA-ES-BJ tumor spheroid viability
# Experiment: Anticancer human tumor VA-ES-BJ cell line growth inhibition;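 also: spheroids exposed to compounds for seven days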;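 as to viability, T/C: percent of DMSO vehicle control viability so 100% = untreated growth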
# Conditions: spheroids with HUVEC and MSC; for IC50: curve of first compound; for viability, T/C: stronger effect = lower value
# Excerpt: Multicellular complex tumor spheroid response to DNA repair inhibitors in combination with DNA-damaging drugs
# This study explores the anticancer activities of DNA-damaging drugs and inhibitors of DNA damage repair, both as single agents and in combinations. Complex tumor spheroids comprised of malignant cells, endothelial cells and mesenchymal stem cells served as an in vitro model for human solid tumors. This model system incorporates physiologically relevant features and patient-derived or established malignant cell lines with clinically relevant genetic alterations from many tumor types. Twenty-six patient-derived or established malignant cell lines were evaluated representing sarcoma, melanoma, small cell lung cancer (SCLC), non-small cell lung cancer (NSCLC), as well as bladder, ovarian and pancreatic cancers. The concentration ranges selected for each drug and investigational agent were based upon clinically achievable concentrations if the clinical Cmax of the agent was known.
# Compounds. The drugs and compounds olaparib (NSC753686), talazoparib (NSC767125), berzosertib (NSC777718), elimusertib (NSC800525), nedisertib (NSC802822), VX-984 (NSC792969), AZD-1390 (NSC803789), temozolomide (NSC362856), topotecan (NSC609699), trabectedin (NSC813783), staurosporine (NSC755774), and gemcitabine (NSC613327) were obtained from the National Cancer Institute (NCI) Developmental Therapeutics Program Chemical Repository. The FDA-approved anticancer drug set is available from the Developmental Therapeutics Program at https://dtp.cancer.gov/organization/dscb/obtaining/available_plates.htm. […] The stock solutions were prepared in dimethyl sulfoxide (DMSO, Sigma-Aldrich, St. Louis, MO, cat. D2650) at 400-fold the tested concentration and stored at -70 degrees C. Prior to their use, the stock solutions were diluted in fresh medium and the final DMSO concentration in the assay was 0.25% (v/v). All drugs and investigational agents were tested over a range starting from a high concentration at or near the clinical Cmax and decreasing in half-log increments. If the clinical Cmax for an agent had not been determined, the highest concentration tested was 10 microM.
# Cell Lines. The patient-derived cancer cell (PDC) lines: 156681-154-R-J1-PDC, 283228-195-R-J1-PDC, 287954-098-R-J1-PDC, 292921-168-R-J2-PDC, 349418-098-R-PDC, 425362-245-T-J1-PDC, 556581-035-R-J1-PDC, and BL0293-F563-PDC were received from the NCI Patient-Derived Models Repository (PDMR, https://pdmr.cancer.gov). The established cell lines HS-SY-2 (RRID:CVCL_8719), MPNST, and SYO-1 (RRID:CVCL_7146) were obtained from the Sloan Kettering Institute. The alveolar soft parts sarcoma cell line ASPS-1 (RRID:CVCL_S738) was established at the NCI and grown from internal seed stocks. The following established cell lines were purchased from the American Type Culture Collection (ATCC, Manassas, VA): G-401 (ATCC, cat. CRL-1441, RRID:CVCL_0270), SW982 (ATCC, cat. HTB-93, RRID:CVCL_1734), VA-ES-BJ (ATCC, cat. CRL-2138, RRID:CVCL_1785), NCI-H719 (ATCC, cat. CRL-5837, RRID:CVCL_1582), NCI-H196 (ATCC, cat. CRL-5823, RRID:CVCL_1509), NCI-H841 (ATCC, cat. CRL-5845, RRID:CVCL_1595), NCI-H1618 (ATCC, cat. CRL-5879, RRID:CVCL_1480), NCI-H1876 (ATCC, cat. CRL-5902, RRID:CVCL_1503), DMS 114 (ATCC, cat. CRL-2066; RRID:CVCL_1174), NCI-H211 (ATCC, cat. CRL-5824; RRID:CVCL_1529), and SW 1271 (ATCC, cat. CRL-2177, RRID:CVCL_1716). The small cell lung cancer cell line COR-L88 was purchased from Sigma-Aldrich (cat. 92031917-1VL, RRID:CVCL_1141). The non-small cell lung cancer cell lines NCI-H226 (RRID:CVCL_1544) and NCI-H322M (RRID:CVCL_1557) were established at the NCI and grown from internal seed stocks. Pooled donor human umbilical vein endothelial cells (HUVEC, Lonza, cat. CC-2519) and human mesenchymal stem cells (hMSC, Lonza, cat. PT-2501) were purchased from Lonza (Walkersville, MD).
# Cell Culture. All cells were maintained in an incubator at 37 degrees C and 5% CO2 with 95% humidity. […]
smiles,measurement,setting,value
Cc1cc(C)c(CNC(=O)c2cc(-c3ccc(CN4CCOCC4)cc3)cc3c2cnn3C2CCCC2)c(=O)[nH]1 + CC[C@@]1(O)C(=O)OCc2c1cc1n(c2=O)Cc2cc3c(CN(C)C)c(O)ccc3nc2-1,IC50,second compound 0.003 µM,> 10000 nM
same,IC50,second compound 0.00949 µM,> 10000 nM
same,IC50,second compound 0.03 µM,< 31.6 nM
same,IC50,second compound 0.0949 µM,< 31.6 nM
same,IC50,second compound 0.3 µM,< 31.6 nM
same,"viability, T/C","second compound 0.003 µM, first compound 0.0316 µM",92.3%
same,"viability, T/C","second compound 0.003 µM, first compound 0.1 µM",98%
same,"viability, T/C","second compound 0.003 µM, first compound 0.316 µM",95%
same,"viability, T/C","second compound 0.003 µM, first compound 1 µM",98.9%
same,"viability, T/C","second compound 0.003 µM, first compound 3.16 µM",103%
same,"viability, T/C","second compound 0.003 µM, first compound 10 µM",94.8%
same,"viability, T/C","second compound 0.00949 µM, first compound 0.0316 µM",74.2%
same,"viability, T/C","second compound 0.00949 µM, first compound 0.1 µM",84%
same,"viability, T/C","second compound 0.00949 µM, first compound 0.316 µM",93.5%
same,"viability, T/C","second compound 0.00949 µM, first compound 1 µM",90%
same,"viability, T/C","second compound 0.00949 µM, first compound 3.16 µM",86.5%
same,"viability, T/C","second compound 0.00949 µM, first compound 10 µM",62.1%
same,"viability, T/C","second compound 0.03 µM, first compound 0.0316 µM",37.3%
same,"viability, T/C","second compound 0.03 µM, first compound 0.1 µM",39%
same,"viability, T/C","second compound 0.03 µM, first compound 0.316 µM",37.3%
same,"viability, T/C","second compound 0.03 µM, first compound 1 µM",36.1%
same,"viability, T/C","second compound 0.03 µM, first compound 3.16 µM",38.2%
same,"viability, T/C","second compound 0.03 µM, first compound 10 µM",44%
same,"viability, T/C","second compound 0.0949 µM, first compound 0.0316 µM",5.21%
same,"viability, T/C","second compound 0.0949 µM, first compound 0.1 µM",5.14%
same,"viability, T/C","second compound 0.0949 µM, first compound 0.316 µM",5.02%
same,"viability, T/C","second compound 0.0949 µM, first compound 1 µM",5.85%
same,"viability, T/C","second compound 0.0949 µM, first compound 3.16 µM",5.97%
same,"viability, T/C","second compound 0.0949 µM, first compound 10 µM",6.03%
same,"viability, T/C","second compound 0.3 µM, first compound 0.0316 µM",5.75%
same,"viability, T/C","second compound 0.3 µM, first compound 0.1 µM",5.52%
same,"viability, T/C","second compound 0.3 µM, first compound 0.316 µM",4.6%
same,"viability, T/C","second compound 0.3 µM, first compound 1 µM",5.28%
same,"viability, T/C","second compound 0.3 µM, first compound 3.16 µM",5.46%
same,"viability, T/C","second compound 0.3 µM, first compound 10 µM",5.71%
Cc1sc2c(c1C)C(c1ccc(Cl)cc1)=NC(CC(=O)Nc1ccc(O)cc1)c1nnc(C)n1-2 (stereo not given) + CC[C@@]1(O)C(=O)OCc2c1cc1n(c2=O)Cc2cc3c(CN(C)C)c(O)ccc3nc2-1,IC50,second compound 0.003 µM,101 nM
same,IC50,second compound 0.00949 µM,45.4 nM
same,IC50,second compound 0.03 µM,< 9.49 nM
same,IC50,second compound 0.0949 µM,< 9.49 nM
same,IC50,second compound 0.3 µM,< 9.49 nM
same,"viability, T/C","second compound 0.003 µM, first compound 0.00949 µM",78.5%
same,"viability, T/C","second compound 0.003 µM, first compound 0.03 µM",75.2%
same,"viability, T/C","second compound 0.003 µM, first compound 0.0949 µM",47%
same,"viability, T/C","second compound 0.003 µM, first compound 0.3 µM",34.7%
same,"viability, T/C","second compound 0.003 µM, first compound 0.949 µM",23.3%
same,"viability, T/C","second compound 0.003 µM, first compound 3 µM",19%
same,"viability, T/C","second compound 0.00949 µM, first compound 0.00949 µM",66.1%
same,"viability, T/C","second compound 0.00949 µM, first compound 0.03 µM",55.6%
same,"viability, T/C","second compound 0.00949 µM, first compound 0.0949 µM",40.1%
same,"viability, T/C","second compound 0.00949 µM, first compound 0.3 µM",28.6%
same,"viability, T/C","second compound 0.00949 µM, first compound 0.949 µM",18.4%
same,"viability, T/C","second compound 0.00949 µM, first compound 3 µM",13.5%
same,"viability, T/C","second compound 0.03 µM, first compound 0.00949 µM",30.7%
same,"viability, T/C","second compound 0.03 µM, first compound 0.03 µM",33.7%
same,"viability, T/C","second compound 0.03 µM, first compound 0.0949 µM",23.1%
same,"viability, T/C","second compound 0.03 µM, first compound 0.3 µM",13.3%
same,"viability, T/C","second compound 0.03 µM, first compound 0.949 µM",5.6%
same,"viability, T/C","second compound 0.03 µM, first compound 3 µM",5.34%
same,"viability, T/C","second compound 0.0949 µM, first compound 0.00949 µM",5.99%
same,"viability, T/C","second compound 0.0949 µM, first compound 0.03 µM",5.36%
same,"viability, T/C","second compound 0.0949 µM, first compound 0.0949 µM",5.41%
same,"viability, T/C","second compound 0.0949 µM, first compound 0.3 µM",4.64%
same,"viability, T/C","second compound 0.0949 µM, first compound 0.949 µM",4.96%
same,"viability, T/C","second compound 0.0949 µM, first compound 3 µM",3.57%
same,"viability, T/C","second compound 0.3 µM, first compound 0.00949 µM",5.26%
same,"viability, T/C","second compound 0.3 µM, first compound 0.03 µM",5.21%
same,"viability, T/C","second compound 0.3 µM, first compound 0.0949 µM",4.85%
same,"viability, T/C","second compound 0.3 µM, first compound 0.3 µM",4.65%
same,"viability, T/C","second compound 0.3 µM, first compound 0.949 µM",4.55%
same,"viability, T/C","second compound 0.3 µM, first compound 3 µM",3.36%
